According to patent publication US20100004159A1, “SUBSTITUTED IMIDAZOLONE DERIVATIVES, PREPARATIONS AND USES” (GENFIT, priority 2006, published 2010):

How the values were obtained:
[1] = system: PPARs target genes; experiment: Expression of PPAR target genes by quantitative RT-PCR in db/db mouse tissue; assay type: in vivo; conditions: db/db mice, 50 mpk for 28 days
Protocol: Samples of hepatic tissue and adipose epididymal tissue were taken and frozen immediately in liquid nitrogen then conserved at −80° C. for later analysis.
Total RNA was extracted from liver fragments by using a NucleoSpine 96 RNA kit (Macherey Nagel, Hoerdt, France) according to the manufacturer's instructions.
The total RNA of the adipose tissue was extracted from tissue fragments with a method using guanidine thiocyanate. The tissues were briefly homogenized in 5 mL of a lysis buffer (guanidine thiocyanate 4M, EDTA pH8 10 mM, Tris HCl pH 7.5 50 mM and b-mercaptoethanol 1.4%) using polytron. To separate the layers, 500 μL of sodium acetate 2M pH4, 5 mL of phenol, and 2 mL of a mixture of chloroform/isoamylic alcohol (49:1) were added. After centrifugation, the aqueous layer was collected and the RNA was precipitated in the presence of isopropanol. After a second precipitation, the RNA was washed with ethanol 70°, dried, then suspended again in an volume of water free of RNase. A step of purification/DNase I treatment of the RNA was then carried out by using NucleoSpin® 96 RNA kit (Macherey-Nagel) according to the manufacturer's instructions. 1 μg of total RNA (quantified by using the Ribogreen RNA quantification kit (Molecular Probes)) was then reverse-transcribed into cDNA by means of a 1 hour reaction at 37° C. in a total volume of 20 μl containing a buffer 1× (Sigma), 1.5 mM of DTT, 0.18 mM, of dNTPs (Promega), 200 ng of pdN6 (Amersham), 30 U of RNase inhibitor (Sigma), and 1 μl of MMLV-RT (Sigma). The quantitative PCR experiments were carried out using the MyiQ Single-Color Real-Time PCR Detection System (Biorad, Marnes-la-Coquette, France) and were performed using the iQ SYBR Green Supermix kit according to the manufacturer's recommendations, in 96-well plates in 5 μl of a diluted reverse transcription solution at a hybridization temperature of 55° C. Primer pairs specific to the studied genes were used:
The quantity of emitted fluorescence is directly proportional to the quantity of cDNA present at the beginning of the reaction and amplified during the PCR. For each target studied, a range of solutions is performed with successive dilutions of a mixture made up of a few μl of different reverse-transcription solutions. The relative levels of expression of each target are thus determined by using efficiency curves obtained with the points relative to the range.
The expression levels of the genes of interest were then normalized, in the hepatic tissue with respect to the level expression of reference gene 36B4 (whose specific primers are: sense primer: 5′-[…]-3′ (SEQ ID NO: 15) and antisense primer: 5′-[…]-3′ (SEQ ID NO: 16)), and in the adipose tissue with respect to reference gene 18S (whose specific primers are: sense primer: 5′-[…]-3′ (SEQ ID NO: 17) and antisense primer: 5′-[…]-3′ (SEQ ID NO: 18)). The induction factor was then calculated for each sample. The higher the induction factor is, the more the compound promotes gene expression. The final result is represented as the average of the induction values within each experimental group.

[2] = system: Wistar rats under repeated administrations of angiotensin II; experiment: Arterial pressure of Wistar rats under repeated administration of angiotensin II; assay type: in vivo, rat; conditions: angiotensin II boluses 50, 100 and 200 ng/kg; single intravenous dose 20 mpk
Protocol: This experimental procedure is intended to show the anti-hypertensive effects of the compounds according to the invention in Wistar rats in which hypertension is induced either by continuous intravenous administration of angiotensin II (example 21.1) or by repeated intravenous administration of angiotensin II (example 21.2). The animals were treated with the compounds according to the invention intravenously at increasing doses. To validate the study, the control animals were administered, in the same conditions, either the vehicle itself or a reference.
Wistar rats (males—200-250 g—5-6 weeks old—CERJ) were anesthetized for surgery using pentobarbital (50 mg/kg). A catheter was placed in the right jugular vein for angiotensin II administration. A catheter was placed in the left jugular vein the administration of the compounds according to the invention. Boluses of angiotensin II were performed at predetermined intervals by the experimenter using a manual syringe.
The arterial pressure of the animal was measured for a few minutes at basal conditions; then three successive intravenous administrations of angiotensin II (50, 100, and 200 ng/kg) were performed. At every bolus of angiotensin II, the average arterial pressure, expressed in mm of Hg, increased in a very temporary way. […]

CCCCC1=NC2(CCCC2)C(=O)N1Cc1ccc(-c2cccc(OC(C)(C)C(=O)O)c2)cc1 [Compound 1, 2-butyl-1-[(3′-((1-carboxy-1,1-dimethylmethyl)oxy)biphenyl-4-yl)methyl]-4-spirocyclopentyl-1H-imidazol-5(4H)-one]
hepatic expression of the gene coding for CPT1 b [1]: significant increase | hepatic expression of the gene coding for PDK-4 [1]: significant increase | expression of the gene coding for ApoCIII ([1]; liver): significant decrease | expression of the gene coding for FBb ([1]; liver): significant decrease | difference of arterial pressure: antagonist effect on angiotensin II [2]: antagonist effect on angiotensin II
